# Measured values taken from patent US10155781B2, “Co-crystals, salts and solid forms of tenofovir alafenamide” (Gilead Sciences, Inc., priority 2015, dated 2018).
# Structures can show the parent of a compound that is named as a salt. Where two headings read alike, the source gives them in different places.
# Conditions: solid material, compared by XRPD
# Text: Two XRPD systems were used for the characterization of the samples.
# (1) Bruker AXS C2 GADDS diffractometer uses Cu Kalpha radiation (40 kV, 40 mA), automated XYZ stage, laser video microscope for auto-sample positioning and a HiStar 2-dimensional area detector. X-ray optics consists of a single Göbel multilayer mirror coupled with a pinhole collimator of 0.3 mm. The beam divergence, i.e. the effective size of the X-ray beam on the sample, was approximately 4 mm. A θ-θ continuous scan mode was employed with a sample-detector distance of 20 cm which gives an effective 20 range of 3.2°-29.7°. Typically the sample was exposed to the X-ray beam for 120 seconds. The software used for data collection was GADDS for XP/2000 4.1.36 and the data was analyzed and presented using Diffrac Plus EVA v13.0.0.2 or v15.0.0.0.
# Samples run under ambient conditions were prepared as flat plate specimens using powder as received without grinding. Approximately 1-2 mg of the sample was lightly pressed on a glass slide to obtain a flat surface.
# (2) Bruker D8 diffractometer uses Cu Ka radiation (40 kV, 40 mA), θ-2θ goniometer, and divergence of V4 and receiving slits, a Ge monochromator and a Lynxeye detector. The software used for data collection was Diffrac Plus XRD Commander v2.6.1 and the data was analyzed and presented using Diffrac Plus EVA v13.0.0.2 or v15.0.0.0.
# Samples were run under ambient conditions as flat plate specimens using powder as received. The sample was gently packed into a cavity cut into polished, zero-background (510) silicon wafer. The sample was rotated in its own plane during analysis. The details of the data collection was: Angular range: 2 to 42° 2θ; Step size: 0.05° 2θ; Collection time: 0.5 s/step
# (3) PANanalytical XPERT-PRO diffractometer at ambient conditions under the following experimental settings: 45 KV, 40 mA, Kα1=1.5406 Å, scan range 2 to 40°, step size 0.0084 or 0.0167°, measurement time: 5 min.
Structure (SMILES),XRPD pattern after storage at 40° C. 75% RH for 14 days (solid form stability),XRPD pattern after storage at 40° C. 75% RH for 14 days (solid form stability) (Hydrochloride)
"CC(C)OC(=O)[C@H](C)N[P@](=O)(CO[C@H](C)Cn1cnc2c(N)ncnc21)Oc1ccccc1 [tenofovir alafenamide benzenesulfonate, Tenofovir Alafenamide Benzenesulfonate]",no change,–
"CC(C)OC(=O)[C@H](C)N[P@](=O)(CO[C@H](C)Cn1cnc2c(N)ncnc21)Oc1ccccc1 [tenofovir alafenamide mucate pattern 2, Tenofovir Alafenamide Mucate]",no change,–
"CC(C)OC(=O)[C@H](C)N[P@](=O)(CO[C@H](C)Cn1cnc2c(N)ncnc21)Oc1ccccc1 [tenofovir alafenamide L-malate, Tenofovir Alafenamide L-Malate]",no change,–
CC(C)OC(=O)[C@H](C)N[P@](=O)(CO[C@H](C)Cn1cnc2c(N)ncnc21)Oc1ccccc1 [Tenofovir alafenamide methanesulfonate pattern 1],changed to another form,–
"CC(C)OC(=O)[C@H](C)N[P@](=O)(CO[C@H](C)Cn1cnc2c(N)ncnc21)Oc1ccccc1 [tenofovir alafenamide mucate pattern 1, Tenofovir Alafenamide Mucate]",no change,–
"CC(C)OC(=O)[C@H](C)N[P@](=O)(CO[C@H](C)Cn1cnc2c(N)ncnc21)Oc1ccccc1 [tenofovir alafenamide hydrochloride, Tenofovir Alafenamide Hydrochloride]",–,remained unchanged
"CC(C)OC(=O)[C@H](C)N[P@](=O)(CO[C@H](C)Cn1cnc2c(N)ncnc21)Oc1ccccc1 [tenofovir alafenamide saccharin, Tenofovir Alafenamide Saccharin]",same XRPD pattern was obtained,–
"CC(C)OC(=O)[C@H](C)N[P@](=O)(CO[C@H](C)Cn1cnc2c(N)ncnc21)Oc1ccccc1 [tenofovir alafenamide ethanesulfonate, Tenofovir Alafenamide Ethanesulfonate]",no XRPD change,–
"CC(C)OC(=O)[C@H](C)N[P@](=O)(CO[C@H](C)Cn1cnc2c(N)ncnc21)Oc1ccccc1 [tenofovir alafenamide oxalate, Tenofovir Alafenamide Oxalate]",no change in XRPD,–
